Data taken from BindingDB's records for doi:10.1016/j.bmc.2020.115716 (Chemical Diversity Research Institute, 2020).

How the values were obtained:
[1] = Inhibition of HCV genotype 5a NS5A infected in Huh7 cells assessed as reduction in viral replication incubated 3 days and measured by bright Glo-luciferase reporter gene assay
[2] = Inhibition of HCV genotype 1a NS5A infected in Huh7 cells assessed as reduction in viral replication incubated 3 days and measured by bright Glo-luciferase reporter gene assay
[3] = Inhibition of HCV genotype 4a NS5A infected in Huh7 cells assessed as reduction in viral replication incubated 3 days and measured by bright Glo-luciferase reporter gene assay
[4] = Inhibition of HCV genotype 3a NS5A infected in Huh7 cells assessed as reduction in viral replication incubated 3 days and measured by bright Glo-luciferase reporter gene assay
[5] = Inhibition of HCV genotype 2a NS5A infected in Huh7 cells assessed as reduction in viral replication incubated 3 days and measured by bright Glo-luciferase reporter gene assay
[6] = Inhibition of HCV genotype 1b NS5A infected in Huh7 cells assessed as reduction in viral replication incubated 3 days and measured by Bright-Glo luciferase assay

Row | SMILES | IC50 [1] [nM] | IC50 [2] [nM] | IC50 [3] [nM] | IC50 [4] [nM] | IC50 [5] [nM] | EC50 [6] [pM]
1 | COC(=O)N[C@H](C(=O)N1CCC[C@H]1c1ncc(-c2ccc(C#CC#Cc3cnc([C@@H]4CCCN4C(=O)[C@H](NC(=O)OC)c4ccccc4)[nH]3)c(-c3cccc(-c4ccccc4)c3)c2)[nH]1)C(C)C | 0.122 | 0.626 | 0.011 | 0.123 | 0.033 | 
2 | COC(=O)N[C@H](C(=O)N1CCC[C@H]1c1ncc(C#CC#Cc2ccc(-c3cnc([C@@H]4CCCN4C(=O)[C@@H](NC(=O)OC)C(C)C)[nH]3)cc2)[nH]1)c1ccccc1 | 6.4 | 0.758 | 0.423 | 10.7 | 0.431 | 12
3 | COC(=O)N[C@H](C(=O)N1CCC[C@H]1c1ncc(-c2ccc(C#CC#Cc3cnc([C@@H]4CCCN4C(=O)[C@H](NC(=O)OC)c4ccccc4)[nH]3)c(-c3ccc(C(C)(C)C)cc3)c2)[nH]1)C(C)C | 0.693 | 2.3 | 0.01 | 0.362 |  | 
4 | COC(=O)N[C@H](C(=O)N1CCC[C@H]1c1ncc(-c2ccc(C#CC#Cc3cnc([C@@H]4CCCN4C(=O)[C@@H](NC(=O)OC)C(C)C)[nH]3)cc2)[nH]1)c1ccccc1 | 0.2 | 1.34 | 0.123 | 4.92 | 0.12 | 12
5 | COC(=O)N[C@H](C(=O)N1CCC[C@H]1c1ncc(-c2ccc(C#CC#Cc3cnc([C@@H]4CCCN4C(=O)[C@H](NC(=O)OC)c4ccccc4)[nH]3)c(-c3cccc(C(C)(C)C)c3)c2)[nH]1)C(C)C | 0.107 | 1.07 | 0.007 | 0.093 | 0.104 | 
6 | COC(=O)N[C@H](C(=O)N1CCC[C@H]1c1ncc(-c2ccc(C#CC#Cc3cnc([C@@H]4CCCN4C(=O)[C@H](NC(=O)OC)c4ccccc4)[nH]3)cc2)[nH]1)C(C)C | 0.126 | 0.276 | 0.036 | 0.329 | 0.016 | 7
7 | COC(=O)N[C@H](C(=O)N1CCC[C@H]1c1ncc(C#CC#Cc2ccc(-c3cnc([C@@H]4CCCN4C(=O)[C@@H](NC(=O)OC)C(C)C)[nH]3)cc2-c2ccc(C(C)(C)C)cc2)[nH]1)C(C)C | 0.356 | 0.642 | 0.011 | 1.29 | 1.68 | 
8 | COC(=O)N[C@H](C(=O)N1CCC[C@H]1c1ncc(-c2ccc(C#CC#Cc3cnc([C@@H]4CCCN4C(=O)[C@H](NC(=O)OC)c4ccccc4)[nH]3)c(-c3ccc(-c4ccccc4)cc3)c2)[nH]1)C(C)C | 0.131 | 0.418 | 0.006 | 0.064 |  | 
9 | COC(=O)N[C@H](C(=O)N1CCC[C@H]1c1ncc(C#CC#Cc2ccc(-c3cnc([C@@H]4CCCN4C(=O)[C@@H](NC(=O)OC)C(C)C)[nH]3)cc2-c2cccc(-c3ccccc3)c2)[nH]1)C(C)C | 0.763 | 0.47 | 0.019 | 2.79 | 0.449 | 
10 | COC(=O)N[C@H](C(=O)N1CCC[C@H]1c1ncc(-c2ccc(C#CC#Cc3cnc([C@@H]4CCCN4C(=O)[C@H](NC(=O)OC)c4ccccc4)[nH]3)c(N3CCN(C)CC3)c2)[nH]1)C(C)C | 3.1 | 0.473 | > 10 | > 10 | 0.143 | 34

Molecules with a lower IC50 [2], results first:

Row | IC50 [1] [nM] | IC50 [2] [nM] | IC50 [3] [nM] | IC50 [4] [nM] | IC50 [5] [nM] | EC50 [6] [pM] | SMILES
11 | 0.267 | 0.248 | 0.008 | 0.864 | 0.028 |  | COC(=O)N[C@H](C(=O)N1CCC[C@H]1c1ncc(C#CC#Cc2ccc(-c3cnc([C@@H]4CCCN4C(=O)[C@@H](NC(=O)OC)C(C)C)[nH]3)cc2-c2ccc3ccccc3c2)[nH]1)C(C)C
12 | 0.027 | 0.037 | 0.006 | 0.364 | 0.008 |  | COC(=O)N[C@H](C(=O)N1CCC[C@H]1c1ncc(C#CC#Cc2c(C)cc(-c3cnc([C@@H]4CCCN4C(=O)[C@@H](NC(=O)OC)C(C)C)[nH]3)cc2-c2ccccc2)[nH]1)C(C)C
13 | 0.019 | 0.028 |  | 0.016 | 0.001 |  | COC(=O)N[C@H](C(=O)N1CCC[C@H]1c1ncc(-c2ccc(C#CC#Cc3cnc([C@@H]4CCCN4C(=O)[C@H](NC(=O)OC)c4ccccc4)[nH]3)c(-c3cccc(F)c3F)c2)[nH]1)C(C)C
14 | 1.4 | 0.113 | 0.548 | 0.353 | 0.023 | 4 | COC(=O)N[C@H](C(=O)N1CCC[C@H]1c1ncc(-c2ccc(C#CC#Cc3cnc([C@@H]4CCCN4C(=O)[C@H](NC(=O)OC)c4ccccc4)[nH]3)c(-c3ccc(N4CCN(C)CC4)cc3)c2)[nH]1)C(C)C
15 |  | 0.124 | 0.01 | 0.026 | 0.003 |  | COC(=O)N[C@H](C(=O)N1CCC[C@H]1c1ncc(-c2cc(C)c(C#CC#Cc3cnc([C@@H]4CCCN4C(=O)[C@H](NC(=O)OC)c4ccccc4)[nH]3)c(-c3ccccc3)c2)[nH]1)C(C)C
16 | 0.1 | 0.21 | 0.012 | 0.629 | 0.007 | 6 | COC(=O)N[C@H](C(=O)N1CCC[C@H]1c1ncc(C#CC#Cc2ccc(-c3cnc([C@@H]4CCCN4C(=O)[C@H](NC(=O)OC)c4ccccc4)[nH]3)cc2)[nH]1)C(C)C
17 | 0.052 | 0.138 | 0.011 | 0.038 | 0.013 |  | COC(=O)N[C@H](C(=O)N1CCC[C@H]1c1ncc(-c2ccc(C#CC#Cc3cnc([C@@H]4CCCN4C(=O)[C@H](NC(=O)OC)c4ccccc4)[nH]3)c(-c3ccc(N(C)C)cc3)c2)[nH]1)C(C)C
18 | 0.019 | 0.214 | 0.008 | 0.04 | 0.013 |  | COC(=O)N[C@H](C(=O)N1CCC[C@H]1c1ncc(-c2ccc(C#CC#Cc3cnc([C@@H]4CCCN4C(=O)[C@H](NC(=O)OC)c4ccccc4)[nH]3)c(Oc3ccccc3)c2)[nH]1)C(C)C
19 | 0.035 | 0.257 | 0.009 | 0.091 | 0.014 |  | COC(=O)N[C@H](C(=O)N1CCC[C@H]1c1ncc(-c2ccc(C#CC#Cc3cnc([C@@H]4CCCN4C(=O)[C@H](NC(=O)OC)c4ccccc4)[nH]3)c(Sc3ccccc3)c2)[nH]1)C(C)C
20 | 0.026 | 0.045 |  | 0.034 |  | 2.9 | COC(=O)N[C@H](C(=O)N1CCC[C@H]1c1ncc(-c2ccc(C#CC#Cc3cnc([C@@H]4CCCN4C(=O)[C@H](NC(=O)OC)c4ccccc4)[nH]3)c(-c3ccccc3)c2)[nH]1)C(C)C
21 | 0.129 | 0.072 | 0.007 | 1.31 | 0.03 | 2 | COC(=O)N[C@H](C(=O)N1CCC[C@H]1c1ncc(C#CC#Cc2ccc(-c3cnc([C@@H]4CCCN4C(=O)[C@@H](NC(=O)OC)C(C)C)[nH]3)cc2-c2ccccc2)[nH]1)C(C)C
22 | 0.12 | 0.064 | 0.019 | 0.459 | 0.015 |  | COC(=O)N[C@H](C(=O)N1CCC[C@H]1c1ncc(C#CC#Cc2c(F)cc(-c3cnc([C@@H]4CCCN4C(=O)[C@@H](NC(=O)OC)C(C)C)[nH]3)cc2-c2ccccc2)[nH]1)C(C)C
23 | 0.026 | 0.051 | 0.012 | 0.02 | 0.005 |  | COC(=O)N[C@H](C(=O)N1CCC[C@H]1c1ncc(-c2cc(F)c(C#CC#Cc3cnc([C@@H]4CCCN4C(=O)[C@H](NC(=O)OC)c4ccccc4)[nH]3)c(-c3ccccc3)c2)[nH]1)C(C)C
24 | 0.027 | 0.072 | 0.011 | 0.035 | 0.011 |  | COC(=O)N[C@H](C(=O)N1CCC[C@H]1c1ncc(-c2ccc(C#CC#Cc3cnc([C@@H]4CCCN4C(=O)[C@H](NC(=O)OC)c4ccccc4)[nH]3)c(N(C)c3ccccc3)c2)[nH]1)C(C)C
